Data taken from patent US8563714B2, “Bridged spiro [2.4] heptane derivatives as ALX receptor and/or FPRL2 agonists” (Actelion Pharmaceuticals Ltd., priority 2009, dated 2013).

What was measured:
human ALX receptor = molecular target: T1, human ALX receptor (Homo sapiens, UniProt P25090); assay: Intracellular calcium measurements (FLIPR), agonistic activity in HEK293-hALXR-Gα16 cells; assay type: cell-based; details: Fluo-4 calcium FLIPR, normalized to WKYMVm 10 nM
T1 construct: expressed in transfected cells; host or cells: HEK293 (HEK293-hALXR-Gα16)
T1 sequence (P25090 1-351): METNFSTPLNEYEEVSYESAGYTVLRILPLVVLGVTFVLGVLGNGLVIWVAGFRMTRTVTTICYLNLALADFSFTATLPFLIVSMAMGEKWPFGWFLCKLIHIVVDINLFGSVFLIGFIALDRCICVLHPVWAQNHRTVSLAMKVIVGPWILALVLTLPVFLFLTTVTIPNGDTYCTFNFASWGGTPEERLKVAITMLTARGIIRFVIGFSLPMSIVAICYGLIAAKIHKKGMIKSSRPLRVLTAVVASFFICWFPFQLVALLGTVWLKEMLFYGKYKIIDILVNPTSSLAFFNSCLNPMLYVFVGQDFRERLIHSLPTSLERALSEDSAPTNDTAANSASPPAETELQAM
Summary of the method: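 HEK293 cells expressing hALXR and Gα16 were loaded with 1 μM Fluo-4 AM and 20 mM HEPES for 60 min at 37°C, then exposed to serially diluted compound. FLIPR fluorescence was read at ex 488/em 540 nm. Baseline-subtracted peak responses were normalized to 10 nM WKYMVm.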

human FPRL2 = molecular target: T2, human FPRL2 (Homo sapiens, UniProt P25089); assay: Intracellular calcium measurements (FLIPR), agonistic activity in HEK293-hFPRL2-Gα16 cells; assay type: cell-based; details: Fluo-4 calcium FLIPR, normalized to GLY14-Humanin 100 nM
T2 construct: expressed in transfected cells; host or cells: HEK293 (HEK293-hFPRL2-Gα16)
T2 sequence (P25089 1-353): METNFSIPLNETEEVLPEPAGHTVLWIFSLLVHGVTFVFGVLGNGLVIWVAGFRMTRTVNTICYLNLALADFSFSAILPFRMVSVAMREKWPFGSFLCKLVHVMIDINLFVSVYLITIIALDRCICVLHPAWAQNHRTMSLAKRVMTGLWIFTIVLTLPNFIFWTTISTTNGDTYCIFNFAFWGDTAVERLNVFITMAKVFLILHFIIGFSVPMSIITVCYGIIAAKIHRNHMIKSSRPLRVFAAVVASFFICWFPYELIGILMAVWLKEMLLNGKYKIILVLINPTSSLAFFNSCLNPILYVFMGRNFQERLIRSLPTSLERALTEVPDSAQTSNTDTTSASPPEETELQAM
Summary of the method: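 Peak values after baseline subtraction are expressed relative to 100 nM Gly14-Humanin; compounds diluted in assay buffer from 10 mM DMSO stocks.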

`O=C(NCCCCN1CCCC1)[C@H]1[C@H](C(=O)NCc2c(F)cc(F)cc2F)[C@@H]2C=C[C@H]1C21CC1` (racemic) [Example 346, (5R*)—N^5-(2,4,6-Trifluorophenyl-methyl)-(6R*)—N^6-(4-pyrrolidino-butyl)-(4S*,7R*)-[4,7-ethenylene-spiro[2.4]heptane]-5,6-dicarboxamide] gave an EC50 (human ALX receptor) of 1.54 µM and an EC50 (human FPRL2) of 0.508 µM.

Compound `Cc1ccc(CNC(=O)[C@H]2[C@H](C(=O)NCCCCN3CCCC3)[C@H]3C=C[C@@H]2C32CC2)c(C)c1` (racemic) [Example 347, (5R*)—N^5-(2,4-Dimethylphenyl-methyl)-(6R*)—N^6-(4-pyrrolidino-butyl)-(4S*,7R*)-[4,7-ethenylene-spiro[2.4]heptane]-5,6-dicarboxamide] has an EC50 (human ALX receptor) of 1.8 µM and an EC50 (human FPRL2) of 0.417 µM.

`CC(=O)c1nc(CNC(=O)[C@H]2[C@H](C(=O)NCCCCN3CCCC3)[C@H]3C=C[C@@H]2C32CC2)cs1` (racemic) [Example 348, (5R*)—N^5-[(2-Acetyl-thiazol-4-yl)methyl]-(6R*)—N^6-(4-pyrrolidino-butyl)-(4S*,7R*)-[4,7-ethenylene-spiro[2.4]heptane]-5,6-dicarboxamide] was tested, and the EC50 (human ALX receptor) was 3.23 µM and the EC50 (human FPRL2) was 0.219 µM.

`O=C(NCCCCN1CCCC1)[C@H]1[C@H](C(=O)NCc2cccc(Cl)c2F)[C@@H]2C=C[C@H]1C21CC1` (racemic) [Example 349, (5R*)—N^5-(3-Chloro-2-fluorophenyl-methyl)-(6R*)—N^6-(4-pyrrolidino-butyl)-(4S*,7R*)-[4,7-ethenylene-spiro[2.4]heptane]-5,6-dicarboxamide] gave an EC50 (human ALX receptor) of 4.72 µM and an EC50 (human FPRL2) of 0.2 µM.

`Cc1coc(NC(=O)[C@H]2[C@H](C(=O)NCCCCN3CCCC3)[C@H]3C=C[C@@H]2C32CC2)n1` (racemic) [Example 350, (5R*)—N^5-(4-Methyl-oxazol-2-yl)-(6R*)—N^6-(4-pyrrolidino-butyl)-(4S*,7R*)-[4,7-ethenylene-spiro[2.4]heptane]-5,6-dicarboxamide] was tested, and the EC50 (human ALX receptor) was 5.73 µM and the EC50 (human FPRL2) was 0.444 µM.

For `CC(=O)c1cnc(CNC(=O)[C@H]2[C@H](C(=O)NCCCCN3CCCC3)[C@H]3C=C[C@@H]2C32CC2)s1` (racemic) [Example 351, (5R*)—N^5-[(5-Acetyl-thiazol-2-yl)methyl]-(6R*)—N^6-(4-pyrrolidino-butyl)-(4S*,7R*)-[4,7-ethenylene-spiro[2.4]heptane]-5,6-dicarboxamide], the EC50 (human ALX receptor) was 6.33 µM and the EC50 (human FPRL2) was 0.094 µM.

`CC(=O)c1cccc(NC(=O)[C@H]2[C@H](C(=O)NCCCCN3CCCC3)[C@H]3C=C[C@@H]2C32CC2)c1` (racemic) [Example 352, (5R*)—N^5-(3-Acetylphenyl)-(6R*)—N^6-(4-pyrrolidino-butyl)-(4S*,7R*)-[4,7-ethenylene-spiro[2.4]heptane]-5,6-dicarboxamide] showed an EC50 (human ALX receptor) of 6.7 µM and an EC50 (human FPRL2) of 0.958 µM.

Compound `O=C(NCCCCN1CCCC1)[C@H]1[C@H](C(=O)NCc2ccc(F)cc2Br)[C@@H]2C=C[C@H]1C21CC1` (racemic) [Example 353, (5R*)—N^5-(2-Bromo-4-fluorophenyl-methyl)-(6R*)—N^6-(4-pyrrolidino-butyl)-(4S*,7R*)-[4,7-ethenylene-spiro[2.4]heptane]-5,6-dicarboxamide] has an EC50 (human ALX receptor) of 6.9 µM and an EC50 (human FPRL2) of 0.256 µM.

With `O=C(NCCCCN1CCCC1)[C@H]1[C@H](C(=O)NCc2ccc(F)c(Br)c2)[C@@H]2C=C[C@H]1C21CC1` (racemic) [Example 354, (5R*)—N^5-(3-Bromo-4-fluorophenyl-methyl)-(6R*)—N^6-(4-pyrrolidino-butyl)-(4S*,7R*)-[4,7-ethenylene-spiro[2.4]heptane]-5,6-dicarboxamide] the EC50 (human ALX receptor) was 7.41 µM and the EC50 (human FPRL2) was 0.223 µM.

`O=C(NCCCCN1CCCC1)[C@H]1[C@H](C(=O)NCc2cc(F)cc(F)c2F)[C@@H]2C=C[C@H]1C21CC1` (racemic) [Example 355, (5R*)—N^5-(2,3,5-Trifluorophenyl-methyl)-(6R*)—N^6-(4-pyrrolidino-butyl)-(4S*,7R*)-[4,7-ethenylene-spiro[2.4]heptane]-5,6-dicarboxamide] gave an EC50 (human ALX receptor) of 7.5 µM and an EC50 (human FPRL2) of 0.477 µM.

With `Cc1nonc1CNC(=O)[C@H]1[C@H](C(=O)NCCCCN2CCCC2)[C@H]2C=C[C@@H]1C21CC1` (racemic) [Example 356, (5R*)—N^5-[(4-Methyl-1,2,5-oxadiazol-3-yl)methyl]-(6R*)—N^6-(4-pyrrolidino-butyl)-(4S*,7R*)-[4,7-ethenylene-spiro[2.4]heptane]-5,6-dicarboxamide] the EC50 (human ALX receptor) was 7.71 µM and the EC50 (human FPRL2) was 0.948 µM.

For `O=C(NCCCCN1CCCC1)[C@H]1[C@H](C(=O)NCc2cccc(C(F)(F)F)c2F)[C@@H]2C=C[C@H]1C21CC1` (racemic) [Example 357, (5R*)—N^5-(2-Fluoro-3-trifluoromethylphenyl-methyl)-(6R*)—N^6-(4-pyrrolidino-butyl)-(4S*,7R*)-[4,7-ethenylene-spiro[2.4]heptane]-5,6-dicarboxamide], the EC50 (human ALX receptor) was 7.91 µM and the EC50 (human FPRL2) was 0.29 µM.

Work on `Cc1cc(C)cc(CNC(=O)[C@H]2[C@H](C(=O)NCCCCN3CCCC3)[C@H]3C=C[C@@H]2C32CC2)c1` (racemic) [Example 358, (5R*)—N^5-(3,5-Dimethylphenyl-methyl)-(6R*)—N^6-(4-pyrrolidino-butyl)-(4S*,7R*)-[4,7-ethenylene-spiro[2.4]heptane]-5,6-dicarboxamide] yielded an EC50 (human ALX receptor) of 7.98 µM and an EC50 (human FPRL2) of 0.176 µM.

In the case of `CC(=O)c1cccc(CNC(=O)[C@H]2[C@H](C(=O)NCCCCN3CCCC3)[C@H]3C=C[C@@H]2C32CC2)c1` (racemic) [Example 359, (5R*)—N^5-(3-Acetylphenyl-methyl)-(6R*)—N^6-(4-pyrrolidino-butyl)-(4S*,7R*)-[4,7-ethenylene-spiro[2.4]heptane]-5,6-dicarboxamide], the EC50 (human ALX receptor) is reported as 8.35 µM and the EC50 (human FPRL2) is reported as 0.359 µM.

`O=C(NCCCCN1CCCC1)[C@H]1[C@H](C(=O)NCc2cccc(OC(F)F)c2)[C@@H]2C=C[C@H]1C21CC1` (racemic) [Example 360, (5R*)—N^5-(3-Difluoromethoxyphenyl-methyl)-(6R*)—N^6-(4-pyrrolidino-butyl)-(4S*,7R*)-[4,7-ethenylene-spiro[2.4]heptane]-5,6-dicarboxamide] was tested, and the EC50 (human ALX receptor) was 8.7 µM and the EC50 (human FPRL2) was 0.53 µM.

With `COc1cc(CNC(=O)[C@H]2[C@H](C(=O)NCCCCN3CCCC3)[C@H]3C=C[C@@H]2C32CC2)ccn1` (racemic) [Example 361, (5R*)—N^5-[(2-Methoxypyridin-4-yl)methyl]-(6R*)—N^6-(4-pyrrolidino-butyl)-(4S*,7R*)-[4,7-ethenylene-spiro[2.4]heptane]-5,6-dicarboxamide] the EC50 (human ALX receptor) was 8.87 µM and the EC50 (human FPRL2) was 0.33 µM.

In the case of `O=C(NCCCCN1CCCC1)[C@H]1[C@H](C(=O)NCc2cc(F)cc(C(F)(F)F)c2)[C@@H]2C=C[C@H]1C21CC1` (racemic) [Example 362, (5R*)—N^5-(3-Fluoro-5-trifluoromethylphenyl-methyl)-(6R*)—N^6-(4-pyrrolidino-butyl)-(4S*,7R*)-[4,7-ethenylene-spiro[2.4]heptane]-5,6-dicarboxamide], the EC50 (human ALX receptor) is reported as 9.09 µM and the EC50 (human FPRL2) is reported as 0.306 µM.

Work on `CC(=O)c1ccc(CNC(=O)[C@H]2[C@H](C(=O)NCCCCN3CCCC3)[C@H]3C=C[C@@H]2C32CC2)cc1` (racemic) [Example 363, (5R*)—N^5-(4-Acetylphenyl-methyl)-(6R*)—N^6-(4-pyrrolidino-butyl)-(4S*,7R*)-[4,7-ethenylene-spiro[2.4]heptane]-5,6-dicarboxamide] yielded an EC50 (human ALX receptor) of 9.74 µM and an EC50 (human FPRL2) of 0.57 µM.

`O=C(NCCCCN1CCCC1)[C@H]1[C@H](C(=O)NCc2cc(C(F)(F)F)ccc2Cl)[C@@H]2C=C[C@H]1C21CC1` (racemic) [Example 364, (5R*)—N^5-(2-Chloro-5-trifluoromethylphenyl-methyl)-(6R*)—N^6-(4-pyrrolidino-butyl)-(4S*,7R*)-[4,7-ethenylene-spiro[2.4]heptane]-5,6-dicarboxamide] showed an EC50 (human ALX receptor) of 9.97 µM and an EC50 (human FPRL2) of 0.372 µM.

`O=C(NCCCCN1CCCC1)[C@H]1[C@H](C(=O)NCc2cc(C(F)(F)F)ccc2F)[C@@H]2C=C[C@H]1C21CC1` (racemic) [Example 365, (5R*)—N^5-(2-Fluoro-5-trifluoromethylphenyl-methyl)-(6R*)—N^6-(4-pyrrolidino-butyl)-(4S*,7R*)-[4,7-ethenylene-spiro[2.4]heptane]-5,6-dicarboxamide] showed an EC50 (human ALX receptor) of 9.97 µM and an EC50 (human FPRL2) of 0.35 µM.
